# Laboratory results from patent US9579313B2, “Hepatitis B antiviral agents” (Novira Therapeutics, Inc., priority 2013, dated 2017).
# Experiments:
# [1] = biological target: T1, HBV C150Bo capsid protein (HBV CA protein) (Hepatitis B virus genotype D subtype adw, UniProt P03147, C107A/C48A/C61A/R150C); assay: HBV assembly assay (fluorescence quenching in vitro capsid assembly); assay type: biochemical
# T1 construct: amino acids 1-150, C49A, C61A, C107A, 150C; made in house; host or cells: E. coli
# T1 sequence (P03147 1-150 C48A/C61A/C107A/R150C): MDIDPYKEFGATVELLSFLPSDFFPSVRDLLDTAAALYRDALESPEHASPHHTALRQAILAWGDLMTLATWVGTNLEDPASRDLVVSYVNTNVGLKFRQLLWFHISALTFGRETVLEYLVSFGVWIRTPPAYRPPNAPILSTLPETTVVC
# From the text: The fluorescence quenching in vitro assembly HBV assay was developed according to a method described by Zlotnick and coworkers (Nature Biotechnology 2006, 24:358). The assay is based on the observation that the C-termini of the HBV core protein cluster together during capsid formation. This assay utilizes a mutant C150 HBV capsid protein where all wild-type cysteines are mutated to alanines, but a C-terminal cysteine residue is preserved and is labeled with fluorescent BoDIPY-FL dye. […] Thus, the assay measures the ability and potency of test compounds to modulate capsid assembly by monitoring the fluorescence of the labeled capsid C150Bo protein.
# In a typical assay, the mutant HBV C150 protein (amino acids 1-150, C49A, C61A, C107A, 150C) is cloned into a T7 RNA-polymerase based expression vector, expressed in E. coli and purified to homogeneity as a dimer. The purified HBV core protein is desalted and labeled with BODIPY-FL Dye.
# In a non-limiting embodiment, the assembly assay is conducted in 96-well plate format. The assembly reactions are carried out in 50 mM Hepes buffer, pH 7.5 and 150 mM NaCl. The compounds are pre-incubated with the HBV CA protein for 15 min, and the assembly reactions are initiated by addition of NaCl. The reaction is allowed to continue for 1 hour at room temperature.
# To determine the effect on capsid assembly, each test compound is initially screened at 4 different concentrations: 10 μM, 3 μM, 1 μM and 0.3 μM in duplicates. […] Identified primary hits are confirmed in follow-up studies as described elsewhere herein. […] EC50 values for test compounds are determined via analysis of the dose-response curve.
# Selected compounds of the invention were assayed in the HBV assembly assay, as described elsewhere herein. The assembly assay was conducted in 96-well plate format. The assembly reactions were carried out in 50 mM Hepes buffer, pH 7.5 and 150 mM NaCl. The compounds were pre-incubated with the HBV CA protein for 15 min, and the assembly reactions were initiated by addition of NaCl. The reaction was allowed to continue for 1 hour at room temperature.
# To determine the effect on capsid assembly, each test compound was initially screened at 4 different concentrations: 10 μM, 3 μM, 1 μM and 0.3 μM in duplicates.
# [2] = system: HBV replication in HepG2-2.2.15 cells; assay: Dot-blot assay of HBV replication (HBV DNA levels); details: Hepatitis B virus, HepG2 2.2.15, 144 h, read-out: Activity in dot-blot-assay (EC50, reduction in HBV DNA levels)
# Procedure: In the first anti-viral assay, the ability of compounds to inhibit HBV replication in an HBV-producing hepatoma cell line using the dot-blot method is evaluated.
# Briefly, confluent monolayers of HepG2-2.2.15 cells are incubated with complete medium containing various concentrations of a test compound. Three days later, the culture medium is replaced with fresh medium containing the appropriately diluted test compound. Six days following the initial administration of the test compound, the cell culture supernatant is collected, and cell lysis is performed. The samples are applied onto Nylos membranes and DNA is immobilized to the membrane by UV cross-linking. After pre-hybridization, the HBV probe is added and the hybridization is performed overnight. The membranes are exposed to the Kodak films; antiviral activity is calculated from the reduction in HBV DNA levels (EC50).
# In the first anti-viral assay, the ability of compounds to inhibit HBV replication in an HBV-producing hepatoma cell line using the dot-blot method was evaluated.
# Confluent monolayers of HepG2-2.2.15 cells were incubated with complete medium containing various concentrations of a test compound. Three days later, the culture medium was replaced with fresh medium containing the appropriately diluted test compound. Six days following the initial administration of the test compound, the cell culture supernatant was collected, and cell lysis was performed. The samples were applied onto Nylos membranes and DNA was immobilized to the membrane by UV cross-linking. After pre-hybridization, the HBV probe was added and the hybridization was performed overnight. The membranes were exposed to the Kodak films; antiviral activity was calculated from the reduction in HBV DNA levels (EC50).
SMILES,EC50 [1] [µM],EC50 [2] [µM],EC50 of control compounds in assembly assay ([1]; control compounds)
O=C(Nc1ccc(F)c(Cl)c1)c1cc(S(=O)(=O)N2CCC(O)CC2)cc2[nH]ccc12 [Compound 949],< 10,< 10,
O=C(Nc1cc(F)c(F)c(F)c1)c1cc(S(=O)(=O)N2CCC(O)CC2)cc2[nH]ccc12 [Compound 1287],< 10,,
O=C(Nc1ccc(F)c(F)c1)c1cc(S(=O)(=O)N2CCC(O)CC2)cc2[nH]ccc12 [Compound 1288],,< 10,
O=C(Nc1ccc(F)c(Cl)c1)c1cc(S(=O)(=O)N2CCC(CO)C(O)C2)cc2[nH]ccc12 (stereo not shown) [Compound 1290],,< 10,
O=C(Nc1cc(F)c(F)c(F)c1)c1cc(S(=O)(=O)N2CCC(CO)C(O)C2)cc2[nH]ccc12 (stereo not shown) [Compound 1291],< 10,,
O=C(Nc1ccc(F)c(F)c1)c1cc(S(=O)(=O)N2CCC(CO)C(O)C2)cc2[nH]ccc12 (stereo not shown) [Compound 1292],< 10,,
O=C(Nc1ccc(F)c(Cl)c1)c1cc(S(=O)(=O)N2CC(O)C(F)C2)cc2[nH]ccc12 (stereo not shown) [Compound 1294],< 10,< 10,
O=C(Nc1ccc(F)c(F)c1)c1cc(S(=O)(=O)N2CC(O)C(F)C2)cc2[nH]ccc12 (stereo not shown) [Compound 1296],< 10,,
O=C(Nc1ccc(F)c(Cl)c1)c1cc(S(=O)(=O)N2CC(O)C2)cc2[nH]ccc12 [Compound 1298],,< 10,
O=C(Nc1cc(F)c(F)c(F)c1)c1cc(S(=O)(=O)N2CC(O)C2)cc2[nH]ccc12 [Compound 1299],< 10,,
O=C(Nc1ccc(F)c(F)c1)c1cc(S(=O)(=O)N2CC(O)C2)cc2[nH]ccc12 [Compound 1300],< 10,< 10,
O=C(Nc1ccc(F)c(Cl)c1)c1cc(S(=O)(=O)N2CCC(O)(CO)CC2)cc2[nH]ccc12 [Compound 1302],,< 10,
O=C(Nc1cc(F)c(F)c(F)c1)c1cc(S(=O)(=O)N2CCC(O)(CO)CC2)cc2[nH]ccc12 [Compound 1303],< 10,,
O=C(Nc1ccc(F)c(F)c1)c1cc(S(=O)(=O)N2CCC(O)(CO)CC2)cc2[nH]ccc12 [Compound 1304],< 10,,
O=C(Nc1ccc(F)c(Cl)c1)c1cc(S(=O)(=O)N2CCC(O)CC2)c2[nH]cnc2c1 [Compound 1472],,< 10,
NC1CCN(S(=O)(=O)c2cc(C(=O)Nc3cc(F)c(F)c(F)c3)c3cc[nH]c3c2)CC1 [Compound 1508],< 10,< 10,
COCC1(O)CCN(S(=O)(=O)c2cc(C(=O)Nc3cc(F)c(F)c(F)c3)c3cc[nH]c3c2)CC1 [Compound 1533],< 10,< 10,
COCC1(O)CCN(S(=O)(=O)c2cc(C(=O)Nc3ccc(F)c(Cl)c3)c3cc[nH]c3c2)CC1 [Compound 1534],< 10,,
COCC1(O)CCN(S(=O)(=O)c2cc(C(=O)Nc3ccc(F)c(F)c3)c3cc[nH]c3c2)CC1 [Compound 1535],< 10,< 10,
COC1(CO)CCN(S(=O)(=O)c2cc(C(=O)Nc3cc(F)c(F)c(F)c3)c3cc[nH]c3c2)CC1 [Compound 1536],< 10,,
COC1(CO)CCN(S(=O)(=O)c2cc(C(=O)Nc3ccc(F)c(Cl)c3)c3cc[nH]c3c2)CC1 [Compound 1537],,< 10,
"COC(=O)C1=C(C)NC(c2ccccn2)=NC1c1ccc(F)cc1Cl (stereo not shown) [HAP-1, reference compound]",,,consistent with the literature
